Data from the supplement of paper PMC4314810.
± gives the standard deviation of the averaged measurements.

What follows are sequences tested on MCF7 (assay: HRG-induced Akt activation (dPAkt = log2 pAkt/Akt HRG-stimulated minus log2 pAkt/Akt basal) (log2 ratio difference); higher = stronger HRG-induced Akt(T308) phosphorylation). Conditions: miRNA mimic concentration 10 nM; time after transfection 72 h; heregulin 10 ng/ml; stimulation time 1 h.
Method in brief: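 MCF7 cells ([…], 96-well plates) were transfected with a library of 879 miRNA mimics at 10 nM final using Lipofectamine RNAiMax, in two biological replicates. After 72 h, cells were stimulated with 10 ng/ml heregulin-beta1 for 1 h or left unstimulated. They were fixed with 4% PFA, and phospho-Akt(T308) and total Akt were read by In-Cell Western on an Odyssey. Signals were corrected for column-wise fixation decay, and HRG-induced Akt activation is log2(pAkt/Akt) stimulated minus unstimulated, averaged over replicates.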

Going from CCACCACCGUGUCUGACACUU to GUGAGGGCAUGCAGGCCUGGAUGGGG, the “HRG-induced Akt activation (log2)” value falls from 1.84 ± 0.088 to 1.43 ± 0.21.

GUUGUGUCAGUUUAUCAAAC and GCCUGCUGGGGUGGAACCUGGU are within error of each other in “HRG-induced Akt activation (log2)” value: 1.54 ± 0.089 for the first, 1.81 ± 0.22 for the second.

Compared with UGUAAACAUCCUUGACUGGAAG, CAACUAGACUGUGAGCUUCUAG is higher in “HRG-induced Akt activation (log2)” value: 1.12 ± 0.049 for the first, 2.04 ± 0.049 for the second.

Going from CACUCAGCCUUGAGGGCACUUUC to GGUGGCCCGGCCGUGCCUGAGG, the “HRG-induced Akt activation (log2)” value rises from 0.664 ± 0.32 to 1.55 ± 0.26.

Going from UGCCUGUCUACACUUGCUGUGC to CGUGUAUUUGACAAGCUGAGUU, the “HRG-induced Akt activation (log2)” value rises from 1.34 ± 0.089 to 2.29 ± 0.19.

First: CAUCUUACUGGGCAGCAUUGGA
Second: UUGGCCACAAUGGGUUAGAAC
The “HRG-induced Akt activation (log2)” value of the first is higher: 2.05 ± 0.12 for the first, 1.02 ± 0.1 for the second.

Going from ACAGUCUGCUGAGGUUGGAGC to GAAGUGCUUCGAUUUUGGGGUGU, the “HRG-induced Akt activation (log2)” value falls from 1.54 ± 0.044 to 1.12 ± 0.22.

UCUUGUGUUCUCUAGAUCAGU and UAGCAGCGGGAACAGUUCUGCAG are within 0.2 log units of each other in “HRG-induced Akt activation (log2)” value: 1.53 ± 0.22 for the first, 1.61 ± 0.1 for the second.

AAUCAUACACGGUUGACCUAUU and UCACUCCUCUCCUCCCGUCUU are within 0.2 log units of each other in “HRG-induced Akt activation (log2)” value: 1.41 ± 0.42 for the first, 1.4 ± 0.36 for the second.

GUCCGCUCGGCGGUGGCCCA and GAGUGCCUUCUUUUGGAGCGUU are within error of each other in “HRG-induced Akt activation (log2)” value: 1.34 ± 0.29 for the first, 1.04 ± 0.043 for the second.

UCACAGUGAACCGGUCUCUUU and UAAUACUGCCGGGUAAUGAUGGA are within 0.2 log units of each other in “HRG-induced Akt activation (log2)” value: 1.04 ± 0.063 for the first, 1.08 ± 0.34 for the second.

UUGUGCUUGAUCUAACCAUGU and GGAGAAAUUAUCCUUGGUGUGU are within 0.2 log units of each other in “HRG-induced Akt activation (log2)” value: 1.1 ± 0.016 for the first, 0.932 ± 0.022 for the second.

UCCGUCUCAGUUACUUUAUAGC and UAGCAGCACAUAAUGGUUUGUG are within error of each other in “HRG-induced Akt activation (log2)” value: 1.63 ± 0.18 for the first, 1.98 ± 0.18 for the second.

AACAUCACAGCAAGUCUGUGCU and UAGCACCAUCUGAAAUCGGUUA are within 0.2 log units of each other in “HRG-induced Akt activation (log2)” value: 1.32 ± 0.38 for the first, 1.24 ± 0.077 for the second.

CUGGUACAGGCCUGGGGGACAG and UGAGGUAGUAGUUUGUACAGUU are within error of each other in “HRG-induced Akt activation (log2)” value: 1.68 ± 0.29 for the first, 1.47 ± 0.12 for the second.

UACCCUGUAGAACCGAAUUUGUG and ACGGAUGUUUGAGCAUGUGCUA are within 0.2 log units of each other in “HRG-induced Akt activation (log2)” value: 1.99 ± 0.17 for the first, 2.15 ± 0.13 for the second.

AUGGAUAAGGCUUUGGCUU and AUUCUGCAUUUUUAGCAAGUUC are within 0.2 log units of each other in “HRG-induced Akt activation (log2)” value: 1.72 ± 0.027 for the first, 1.8 ± 0.078 for the second.

CCAAUAUUGGCUGUGCUGCUCC and CUUGGCACCUAGCAAGCACUCA are within 0.2 log units of each other in “HRG-induced Akt activation (log2)” value: 1.32 ± 0.36 for the first, 1.45 ± 0.58 for the second.

UGCCCUAAAUGCCCCUUCUGGC and UAGUAGACCGUAUAGCGUACG are within 0.2 log units of each other in “HRG-induced Akt activation (log2)” value: 1.36 ± 0.27 for the first, 1.5 ± 0.21 for the second.

Compared with AUCGGGAAUGUCGUGUCCGCCC, AAAGUGCUUCCUUUUUGAGGG is lower in “HRG-induced Akt activation (log2)” value: 1.6 ± 0.039 for the first, 0.963 ± 0.46 for the second.

CAGUGCAAUAGUAUUGUCAAAGC and UCGUGUCUUGUGUUGCAGCCGG are within 0.2 log units of each other in “HRG-induced Akt activation (log2)” value: 1.02 ± 0.51 for the first, 1.14 ± 0.13 for the second.

AGAGGUAGUAGGUUGCAUAGUU and AAAAACUGUAAUUACUUUU are within 0.2 log units of each other in “HRG-induced Akt activation (log2)” value: 1.08 ± 0.21 for the first, 1.15 ± 0.3 for the second.

GUGCAUUGUAGUUGCAUUGCA and AGAGCUUAGCUGAUUGGUGAAC are within 0.2 log units of each other in “HRG-induced Akt activation (log2)” value: 1.43 ± 0.074 for the first, 1.58 ± 0.27 for the second.

Going from UGUGCAAAUCCAUGCAAAACUGA to UCAUAGCCCUGUACAAUGCUGCU, the “HRG-induced Akt activation (log2)” value rises from 0.657 ± 0.2 to 1.697 ± 0.0055.

AAAGUUCUGAGACACUCCGACU and AGGAGGCAGCGCUCUCAGGAC are within 0.2 log units of each other in “HRG-induced Akt activation (log2)” value: 1.35 ± 0.082 for the first, 1.54 ± 0.61 for the second.

CUUUCAGUCGGAUGUUUGCAGC and CUAUACGGCCUCCUAGCUUUCC are within 0.2 log units of each other in “HRG-induced Akt activation (log2)” value: 1.75 ± 0.2 for the first, 1.9 ± 0.13 for the second.

AAGGAGCUUACAAUCUAGCUGGG and UCAGCAAACAUUUAUUGUGUGC are within 0.2 log units of each other in “HRG-induced Akt activation (log2)” value: 1.87 ± 0.21 for the first, 1.819 ± 0.011 for the second.

GAAAGUGCUUCCUUUUAGAGGC and ACCUUGCCUUGCUGCCCGGGCC are within error of each other in “HRG-induced Akt activation (log2)” value: 0.832 ± 0.68 for the first, 1.06 ± 0.23 for the second.

Compared with CUCCUAUAUGAUGCCUUUCUUC, UGGUUUACCGUCCCACAUACAU is lower in “HRG-induced Akt activation (log2)” value: 1.72 ± 0.36 for the first, 0.811 ± 0.33 for the second.

In the case of UCGGCCUGACCACCCACCCCAC, the “HRG-induced Akt activation (log2)” value is reported as 0.936 ± 0.2.
